Converted amounts (≈) assume the structure as drawn. Numbered stars: 1 amine (or outer) side, 2 acyl side, 3 side chain; on linkers, the order of the positions; unused ones are H or OH. Peptide text beside a SMILES is read from it. * marks the point of attachment. C20 diacid = O=C(O)CCCCCCCCCCCCCCCCCCC(=O)*; C18 diacid = O=C(O)CCCCCCCCCCCCCCCCC(=O)*; γGlu = O=C(O)[C@H](CCC(=O)[*:2])N[*:1]
Assay: Assay (IV) determination of solubility
Format: physicochemical
Method: Assay (IV)—Determination of Solubility
The mimylin peptide was dissolved in water at ˜500 nmol/ml and mixed 1:1 with a series of buffers (100 mM glycylglycine pH 3.0, 100 mM glycylglycine pH 4.0, 100 mM glycylglycine pH 5.0, 100 mM bistrispropane pH 6.0, 100 mM bistrispropane pH 6.5, 100 mM bistrispropane pH 7.0, 100 mM bistrispropane pH 7.5, 100 mM bistrispropane pH 8.0).

| SMILES | Solubility (pH 3.0) | Solubility (pH 4.0) | solubility at 18 h (pH 5.0) [µM] | Solubility (pH 6.0) | Solubility (pH 6.5) | Solubility (pH 7.0) | Solubility (pH 7.5) | Solubility (pH 8.0) | Solubility (pH 5.0) | solubility at 18 h (pH 4.0) [µM] | solubility at 18 h (pH 6.0) [µM] | solubility at 18 h (pH 6.5) [µM] | solubility at 18 h (pH 7.0) [µM] | solubility at 18 h (pH 7.5) [µM] | solubility at 18 h (pH 8.0) [µM] |
| --- | --- | --- | --- | --- | --- | --- | --- | --- | --- | --- | --- | --- | --- | --- | --- |
| CC(C)C[C@H](NC(=O)[C@H](C)NC(=O)[C@H](C)NC(=O)[C@@H](NC(=O)[C@H](CO)NC(=O)[C@H](CC(C)C)NC(=O)[C@H](CCC(=O)O)NC(=O)[C@H](CO)NC(=O)[C@H](C)NC(=O)CC[C@H](NC(=O)CCCCCCCCCCCCCCCCCCC(=O)O)C(=O)O)[C@@H](C)O)C(=O)NCC(=O)N[C@@H](CCCNC(=N)N)C(=O)N[C@@H](CC(C)C)C(=O)N[C@@H](CO)C(=O)N[C@@H](C)C(=O)N[C@@H](CCC(=O)O)C(=O)N[C@@H](CC(C)C)C(=O)N[C@@H](Cc1cnc[nH]1)C(=O)N[C@@H](CCC(=O)O)C(=O)N[C@@H](CC(C)C)C(=O)N[C@@H](C)C(=O)N[C@H](C(=O)N[C@@H](CC(C)C)C(=O)N1CCC[C@H]1C(=O)N[C@@H](CCCNC(=N)N)C(=O)N[C@H](C(=O)N[C@@H](CCC(=O)O)C(=O)N[C@H](C(=O)NCC(=O)N[C@@H](CO)C(=O)NCC(=O)N[C@@H](CO)C(=O)N[C@@H](Cc1ccccc1)C(N)=O)[C@@H](C)O)[C@@H](C)O)[C@@H](C)O [compound 61, [N-terminal(C20 diacid-gGlu), des1, 30S, 31G, 33F]mimylin] ({C20 diacid-γGlu}-ASELSTAALGRLSAELHELATLPRTETGSGSF-NH2) | ≧200 μM | ≧200 μM | 101 (≈ 376 µg/mL) | ≧200 μM | ≧200 μM | ≧200 μM | ≧200 μM | ≧200 μM |  |  |  |  |  |  |  |
| CC(C)C[C@H](NC(=O)[C@H](CCC(=O)O)NC(=O)[C@H](Cc1cnc[nH]1)NC(=O)[C@H](CC(C)C)NC(=O)[C@H](CCC(=O)O)NC(=O)[C@H](C)NC(=O)[C@H](CO)NC(=O)[C@H](CC(C)C)NC(=O)[C@H](CCCNC(=N)N)NC(=O)CNC(=O)[C@H](CC(C)C)NC(=O)[C@@H](NC(=O)[C@H](C)NC(=O)[C@@H](NC(=O)[C@H](CO)NC(=O)[C@H](CC(C)C)NC(=O)[C@H](CCC(=O)O)NC(=O)[C@H](CO)NC(=O)[C@H](C)NC(=O)CC[C@H](NC(=O)CCCCCCCCCCCCCCCCC(=O)O)C(=O)O)[C@@H](C)O)C(C)C)C(=O)N[C@@H](C)C(=O)N[C@H](C(=O)N[C@@H](CC(C)C)C(=O)N1CCC[C@H]1C(=O)N[C@@H](CCCNC(=N)N)C(=O)N[C@H](C(=O)N[C@@H](CCC(=O)O)C(=O)N[C@H](C(=O)NCC(=O)N[C@@H](CO)C(=O)NCC(=O)N[C@@H](CO)C(=O)N1CCC[C@H]1C(N)=O)[C@@H](C)O)[C@@H](C)O)[C@@H](C)O [compound 76, [N-terminal(C18 diacid-gGlu), des1, 9V, 30S, 31G]mimylin] ({C18 diacid-γGlu}-ASELSTAVLGRLSAELHELATLPRTETGSGSP-NH2) | ≧200 μM | ≧200 μM |  | ≧200 μM | ≧200 μM | ≧200 μM | ≧200 μM | ≧200 μM | ≧200 μM |  |  |  |  |  |  |
| CC(C)C[C@H](NC(=O)[C@H](C)NC(=O)[C@H](C)NC(=O)[C@@H](NC(=O)[C@H](CO)NC(=O)[C@H](CC(C)C)NC(=O)[C@H](CCC(=O)O)NC(=O)[C@H](CO)NC(=O)[C@H](C)NC(=O)CC[C@H](NC(=O)CCCCCCCCCCCCCCCCCCC(=O)O)C(=O)O)[C@@H](C)O)C(=O)NCC(=O)N[C@@H](CCCCN)C(=O)N[C@@H](CC(C)C)C(=O)N[C@@H](CO)C(=O)N[C@@H](C)C(=O)N[C@@H](CCC(=O)O)C(=O)N[C@@H](CC(C)C)C(=O)N[C@@H](Cc1cnc[nH]1)C(=O)N[C@@H](CCC(=O)O)C(=O)N[C@@H](CC(C)C)C(=O)N[C@@H](C)C(=O)N[C@H](C(=O)N[C@@H](Cc1ccc(O)cc1)C(=O)N1CCC[C@H]1C(=O)N[C@@H](CCCCN)C(=O)N[C@H](C(=O)N[C@@H](CCC(=O)O)C(=O)N[C@H](C(=O)NCC(=O)N[C@@H](CO)C(=O)NCC(=O)N[C@@H](CO)C(=O)N[C@@H](Cc1ccc(O)cc1)C(N)=O)[C@@H](C)O)[C@@H](C)O)[C@@H](C)O [compound 101, [N-terminal(C20 diacid-gGlu), des1, 12K, 23Y, 25K, 30S, 31G, 33Y]mimylin] ({C20 diacid-γGlu}-ASELSTAALGKLSAELHELATYPKTETGSGSY-NH2) | ≧200 μM | ≧200 μM |  | ≧200 μM | ≧200 μM | ≧200 μM | ≧200 μM | ≧200 μM | ≧200 μM |  |  |  |  |  |  |
| CC(C)C[C@H](NC(=O)CNC(=O)[C@H](CO)NC(=O)[C@H](C)NC(=O)CC[C@H](NC(=O)CCCCCCCCCCCCCCCCCCC(=O)O)C(=O)O)C(=O)N[C@@H](CO)C(=O)N[C@H](C(=O)N[C@@H](C)C(=O)N[C@H](C(=O)N[C@@H](CC(C)C)C(=O)NCC(=O)N[C@@H](CCCNC(=N)N)C(=O)N[C@@H](CC(C)C)C(=O)N[C@@H](CO)C(=O)N[C@@H](CCC(N)=O)C(=O)N[C@@H](CCC(=O)O)C(=O)N[C@@H](CC(C)C)C(=O)N[C@@H](Cc1cnc[nH]1)C(=O)N[C@@H](CCC(=O)O)C(=O)N[C@@H](CC(C)C)C(=O)N[C@@H](CCC(N)=O)C(=O)N[C@H](C(=O)N[C@@H](Cc1ccc(O)cc1)C(=O)N1CCC[C@H]1C(=O)N[C@@H](CCCNC(=N)N)C(=O)N[C@H](C(=O)N[C@@H](CCC(=O)O)C(=O)N[C@H](C(=O)NCC(=O)N[C@@H](CO)C(=O)NCC(=O)N[C@H](C(=O)N[C@@H](Cc1ccc(O)cc1)C(N)=O)[C@@H](C)O)[C@@H](C)O)[C@@H](C)O)[C@@H](C)O)C(C)C)[C@@H](C)O [compound 118, [N-terminal(C20 diacid-gGlu), des1, 4G, 9V, 15Q, 21Q, 23Y, 30S, 31G, 32T, 33Y]mimylin] | ≧200 μM |  | 8 (≈ 31 µg/mL) |  |  |  |  |  |  | 2 (≈ 7.75 µg/mL) | 17 (≈ 65.9 µg/mL) | 5 (≈ 19.4 µg/mL) | 26 (≈ 101 µg/mL) | 90 (≈ 349 µg/mL) | 173 (≈ 671 µg/mL) |
| CC(C)C[C@H](NC(=O)[C@H](C)NC(=O)[C@@H](NC(=O)[C@H](CO)NC(=O)[C@H](CC(C)C)NC(=O)[C@H](CCC(=O)O)NC(=O)[C@H](CO)NC(=O)[C@H](C)NC(=O)[C@H](CCC(=O)O)NC(=O)CCCCCCCCCCCCCCCCC(=O)O)[C@@H](C)O)C(=O)N[C@@H](C)C(=O)NCC(=O)N[C@@H](CCCNC(=N)N)C(=O)N[C@@H](CC(C)C)C(=O)N[C@@H](CO)C(=O)N[C@@H](C)C(=O)N[C@@H](CCC(=O)O)C(=O)N[C@@H](CC(C)C)C(=O)N[C@@H](Cc1cnc[nH]1)C(=O)N[C@@H](CCC(=O)O)C(=O)N[C@@H](CC(C)C)C(=O)N[C@@H](C)C(=O)N[C@H](C(=O)N[C@@H](CC(C)C)C(=O)N1CCC[C@H]1C(=O)N[C@@H](CCCNC(=N)N)C(=O)N[C@H](C(=O)N[C@@H](CCC(=O)O)C(=O)N[C@H](C(=O)NCC(=O)N1CCC[C@H]1C(=O)N[C@@H](CCC(=O)O)C(=O)N[C@@H](CO)C(=O)N1CCC[C@H]1C(N)=O)[C@@H](C)O)[C@@H](C)O)[C@@H](C)O [compound 27, [N-terminal(C18 diacid), 9L, 10A]mimylin] ({C18 diacid}-EASELSTALAGRLSAELHELATLPRTETGPESP-NH2) | ≧200 μM | ≧200 μM |  | ≧200 μM | ≧200 μM | ≧200 μM | ≧200 μM | ≧200 μM | ≧200 μM |  |  |  |  |  |  |
| CC[C@H](C)[C@H](NC(=O)[C@H](CCC(=O)O)NC(=O)[C@H](CO)NC(=O)[C@H](C)NC(=O)[C@H](CCC(=O)O)NC(=O)CCCCCCCCCCCCCCCCC(=O)O)C(=O)N[C@@H](CO)C(=O)N[C@H](C(=O)N[C@@H](C)C(=O)N[C@@H](C)C(=O)N[C@@H](CC(C)C)C(=O)NCC(=O)N[C@@H](CCCNC(=N)N)C(=O)N[C@@H](CC(C)C)C(=O)N[C@@H](CO)C(=O)N[C@@H](C)C(=O)N[C@@H](CCC(=O)O)C(=O)N[C@@H](CC(C)C)C(=O)N[C@@H](Cc1cnc[nH]1)C(=O)N[C@@H](CCC(=O)O)C(=O)N[C@@H](CC(C)C)C(=O)N[C@@H](C)C(=O)N[C@H](C(=O)N[C@@H](CC(C)C)C(=O)N1CCC[C@H]1C(=O)N[C@@H](CCCNC(=N)N)C(=O)N[C@H](C(=O)N[C@@H](CCC(=O)O)C(=O)N[C@H](C(=O)NCC(=O)N1CCC[C@H]1C(=O)N[C@@H](CCC(=O)O)C(=O)N[C@@H](CO)C(=O)N1CCC[C@H]1C(N)=O)[C@@H](C)O)[C@@H](C)O)[C@@H](C)O)[C@@H](C)O [Ex. #8, [N-terminal(C18 diacid), 5I]mimylin] ({C18 diacid}-EASEISTAALGRLSAELHELATLPRTETGPESP-NH2) | ≧200 μM |  | 35 (≈ 131 µg/mL) | ≧200 μM | ≧200 μM | ≧200 μM | ≧200 μM | ≧200 μM |  | 94 (≈ 351 µg/mL) |  |  |  |  |  |
| CC(C)C[C@H](NC(=O)[C@H](CCC(=O)O)NC(=O)[C@H](Cc1cnc[nH]1)NC(=O)[C@H](CC(C)C)NC(=O)[C@H](CCC(=O)O)NC(=O)[C@H](C)NC(=O)[C@H](CO)NC(=O)[C@H](CC(C)C)NC(=O)[C@H](CCCCN)NC(=O)CNC(=O)[C@H](CC(C)C)NC(=O)[C@@H](NC(=O)[C@H](C)NC(=O)[C@@H](NC(=O)[C@H](CO)NC(=O)[C@H](CC(C)C)NC(=O)[C@H](CCC(=O)O)NC(=O)[C@H](CO)NC(=O)[C@H](C)NC(=O)[C@H](CCC(=O)O)NC(=O)CCCCCCCCCCCCCCCCC(=O)O)[C@@H](C)O)C(C)C)C(=O)N[C@@H](C)C(=O)N[C@H](C(=O)N[C@@H](CC(C)C)C(=O)N1CCC[C@H]1C(=O)N[C@@H](CCCCN)C(=O)N[C@H](C(=O)N[C@@H](CCC(=O)O)C(=O)N[C@H](C(=O)NCC(=O)N1CCC[C@H]1C(=O)N[C@@H](CCC(=O)O)C(=O)N[C@@H](CO)C(=O)N1CCC[C@H]1C(N)=O)[C@@H](C)O)[C@@H](C)O)[C@@H](C)O [compound 39, [N-terminal(C18 diacid), 9V, 12K, 25K]mimylin] ({C18 diacid}-EASELSTAVLGKLSAELHELATLPKTETGPESP-NH2) | ≧200 μM | ≧200 μM |  | ≧200 μM | ≧200 μM | ≧200 μM | ≧200 μM | ≧200 μM | ≧200 μM |  |  |  |  |  |  |

— patent publication US9593149B2, “Amylin and calcitonin receptor agonist” (Novo Nordisk A/S, priority 2014, dated 2017)
